Reference: patent US6002008A, “Substituted 3-cyano quinolines” (American Cyanamid Company, priority 1998, dated 1999)

Key:
Experiment in all cases: Inhibition of cancer cell growth as measured by cell number
Assay type in all cases: cell-based, human
SKBR3 = conditions: SKBR3, 48 hours, Table 8
Description: (§1) The cell lines were chosen since they overexpressed epidermal growth factor receptor (EGFR) (i.e. A431) or HER2/neu (SKBR3), or had little to no expression of the these receptors (SW620, LOX, MCF7).

SW620 = conditions: SW620, 48 hours, Table 8
Description: as §1

A431 = conditions: A431, 48 hours, Table 8
Description: as §1

Inhibition of Cancer Cell Growth as Measured by Cell Number (IC50) (SKBR3): 0.03 µg/mL
Inhibition of Cancer Cell Growth as Measured by Cell Number (IC50) (SW620): 0.1 µg/mL
Inhibition of Cancer Cell Growth as Measured by Cell Number (IC50) (A431): 0.03 µg/mL
SMILES: CCCN(CC#CC(=O)Nc1ccc2ncc(C#N)c(Nc3cccc(Br)c3)c2c1)CCC [Example 170, N-{4-[(3-Bromophenyl)amino]-3-cyano-6-quinolinyl}-4-dipropylamino-2-butynamide]
